Source: ChEMBL document CHEMBL2384984, “Multivalent presentation of a hydrolytically stable GM(3) lactone mimetic as modulator of melanoma cells motility and adhesion” (2013)
The source made the active and inactive calls. No cut-off for these calls is given here.

Columns and labels:
A-375 [1] = assay: Cytotoxicity against human A375 cells at 10 to 50 uM after 24 hrs by crystal-violet staining-based method; assay type: functional, cell-based
A-375 [2] = assay: Inhibition of human A375 cell adhesion to fibronectin-coated dish at 50 uM incubated for 30 mins measured after 1 to 4 hrs by crystal violet staining-based method relative to control; assay type: functional
A-375 [3] = assay: Induction of anoikis in human A375 cells at 50 uM after 24 hrs by FITC-labeled Annexin V-propidium iodide staining-based FACS flow cytometric analysis (reference value: 15%); assay type: functional
[4] = target: RAC-alpha serine/threonine-protein kinase (Homo sapiens) (UniProt P31749); assay: Inhibition of AKT phosphorylation in human A375 cells at 50 uM after 24 hrs by Western blotting analysis; assay type: cell-based; conditions: A-375
A-375 [5] = assay: Inhibition of serum-starved human A375 cell migration at 50 uM after 24 hrs relative to control; assay type: functional; conditions: A-375, 24 h

Sequence of RAC-alpha serine/threonine-protein kinase (Homo sapiens) (P31749 whole entry): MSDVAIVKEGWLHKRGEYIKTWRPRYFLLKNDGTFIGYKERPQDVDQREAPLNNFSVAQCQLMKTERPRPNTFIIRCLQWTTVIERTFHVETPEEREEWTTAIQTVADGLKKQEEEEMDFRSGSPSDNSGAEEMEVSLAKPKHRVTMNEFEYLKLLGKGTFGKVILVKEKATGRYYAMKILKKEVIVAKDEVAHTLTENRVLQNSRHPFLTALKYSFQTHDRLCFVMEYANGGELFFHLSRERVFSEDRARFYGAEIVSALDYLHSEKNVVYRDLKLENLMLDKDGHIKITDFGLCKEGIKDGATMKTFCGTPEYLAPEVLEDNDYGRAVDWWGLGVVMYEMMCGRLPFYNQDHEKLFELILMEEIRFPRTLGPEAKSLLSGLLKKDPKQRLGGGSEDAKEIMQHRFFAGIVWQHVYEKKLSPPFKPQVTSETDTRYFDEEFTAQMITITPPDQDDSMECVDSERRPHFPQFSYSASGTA

inhibition [4] | Compound | Activity (A-375 [1]) | inhibition (A-375 [2]) | inhibition at 50 µM (A-375 [2]) | Activity (A-375 [3]) | inhibition at 50 µM (A-375 [5])
– | CO[C@H]1O[C@H](CO)[C@H](O)C2=C1SC[C@]1(C[C@H](O)[C@H](O)[C@H]([C@H](O)CO)O1)O2 | inactive | inactive | – | – | –
– | CC(=O)OC[C@@H](OC(C)=O)[C@@H]1O[C@@]2(CSC3=C(O2)[C@@H](OC(C)=O)[C@@H](COC(C)=O)O[C@@H]3OCCCCCCNC(=O)CCCCC(=O)Oc2ccc([N+](=O)[O-])cc2)C[C@H](OC(C)=O)[C@@H]1OC(C)=O | – | inactive | – | – | –
Active | CCCOc1c2cc(CCCn3cc(CCO[C@H]4O[C@H](CO)[C@H](O)C5=C4SC[C@]4(C[C@@H](O)[C@@H](O)[C@@H]([C@H](O)CO)O4)O5)nn3)cc1Cc1cc(CCCn3cc(CCO[C@H]4O[C@H](CO)[C@H](O)C5=C4SC[C@]4(C[C@@H](O)[C@@H](O)[C@@H]([C@H](O)CO)O4)O5)nn3)cc(c1OCCC)Cc1cc(CCCn3cc(CCO[C@H]4O[C@H](CO)[C@H](O)C5=C4SC[C@]4(C[C@@H](O)[C@@H](O)[C@@H]([C@H](O)CO)O4)O5)nn3)cc(c1OCCC)Cc1cc(CCCn3cc(CCO[C@H]4O[C@H](CO)[C@H](O)C5=C4SC[C@]4(C[C@@H](O)[C@@H](O)[C@@H]([C@H](O)CO)O4)O5)nn3)cc(c1OCCC)C2 | inactive | – | 33% | 32% | 60%
– | O=C(CCCCC(=O)NCCNC(=O)CCN(CCC(=O)NCCNC(=O)CCCCC(=O)NCCCCCCO[C@H]1O[C@H](CO)[C@H](O)C2=C1SC[C@]1(C[C@@H](O)[C@@H](O)[C@@H]([C@H](O)CO)O1)O2)CCN(CCC(=O)NCCNC(=O)CCCCC(=O)NCCCCCCO[C@H]1O[C@H](CO)[C@H](O)C2=C1SC[C@@]1(C[C@@H](O)[C@@H](O)[C@@H]([C@H](O)CO)O1)O2)CCC(=O)NCCNC(=O)CCCCC(=O)NCCCCCCO[C@H]1O[C@H](CO)[C@H](O)C2=C1SC[C@@]1(C[C@@H](O)[C@@H](O)[C@@H]([C@H](O)CO)O1)O2)NCCCCCCO[C@H]1O[C@H](CO)[C@H](O)C2=C1SC[C@]1(C[C@@H](O)[C@@H](O)[C@@H]([C@H](O)CO)O1)O2 | inactive | inactive | – | – | –
– | CC(C)(C)OC(=O)NCCN(CCC(=O)NCCNC(=O)CCCCC(=O)NCCCCCCO[C@H]1O[C@H](CO)[C@H](O)C2=C1SC[C@@]1(C[C@@H](O)[C@@H](O)[C@@H]([C@H](O)CO)O1)O2)CCC(=O)NCCNC(=O)CCCCC(=O)NCCCCCCO[C@H]1O[C@H](CO)[C@H](O)C2=C1SC[C@@]1(C[C@@H](O)[C@@H](O)[C@@H]([C@H](O)CO)O1)O2 | inactive | inactive | – | – | –
– | CC(C)(C)OC(=O)NCCN(CCC(=O)NCCN)CCC(=O)NCCN | – | inactive | – | – | –
